Laboratory results: patent US20250248392A1, “LETHAL BAIT FOR PEST ANT CONTROL” (priority 2024, published 2025)

Legend:
Format in all cases: in vivo
[1] = tested on: Myrmica rubra fire ants; assay: Laboratory consumption of liquid nutrient baits (Exps. 2, 4, 6, 8, 10, 12)
Protocol: (§1) Liquid nutrient solutions for experiments (see Table 1 for nutrient concentrations) were prepared by weighing dry ingredients (TR 204 scale; Denver Instrument Company, CO, USA), and then mixing them in distilled water. Aliquots (1 mL) of these solutions were pipetted into 1.5-mL Eppendorf tubes (Thermo Fisher Scientific, Waltham, MA 02451, U.S.A.) which were stored in a freezer (−4° C.) until needed.
(§2) Prior to experiments, Eppendorf tubes were removed from the freezer to thaw, and then vortexed to dissolve all solutes. Then, a 1-cm long piece of cotton dental wick (Richmond Dental & Medical, Charlotte, NC 28205, USA) was inserted into each tube, thus allowing ants to ingest the liquid without spillage. Also prior to bioassays, colonies were deprived of sugar water and food for 24 hours and 4 hours, respectively (the maximum time ants could endure without these foods before they attempted to chew their way out of containers). […]
(§3) Colonies of C. modoc (Exp. 1) and M. rubra (Exp. 2) were offered three choices: (1) 11 EAAs+10 non-EAAs (1.05% total w/v) in water; (2) 10 non-EAAs (0.5% w/v) in water; and (3) a water control. […] Data were analyzed using generalized linear models (GLM) and generalized linear mixed models (GLMM). For all models, the significance (p 0.05) of each predictor was assessed using a likelihood ratio test (LRT), and Tukey adjusted pairwise comparisons between means. […]

[2] = tested on: Camponotus modoc field colonies; assay: Exp. 13: seasonal consumption of liquid food baits by field colonies; conditions: Exp. 13, Jun. 18 to Sep. 7, 2021
Description: (§4) Tubes were spaced around the entrance of C. modoc and M. rubra nests, with tube positions randomly assigned in each replicate.
(§5) For the C. modoc experiment (Exp. 13), Eppendorf tubes were affixed 5 cm apart to trees or logs housing a colony as shown, for example, in FIG. 6b. For the M. rubra experiment (Exp. 14), tubes were placed 5 cm apart around the entrance of subterranean nests. Evaporation control tubes were placed in Tupperware containers (15 cm×9 cm×10 cm) with a mesh-covered hole in the lid, and containers were set near ant nests. Replicates with M. rubra colonies (n=10; repeated on 7 dates) were run for 4 hours, and replicates with C. modoc colonies (n=13; repeated on 6 dates) were run for 24 hours. After replicates were terminated, tubes were capped, transported to the laboratory in a cooler, and weighed. All field studies were run on warm and sunny days with observable ant activity.
(§6) Colonies of C. modoc were located along the Mamquam forest service road (near Squamish, BC, Canada) and colonies of M. rubra were located at Inter River Park (District of North Vancouver, BC, Canada). […] Throughout the summer season, nutrient consumption by colonies was measured in circa 3-week intervals on six dates for C. modoc colonies from Jun. 18, 2021 to Sep. 7, 2021, and on seven dates for M. rubra colonies from May 21, 2021 to Sep. 13, 2021.

[3] = tested on: Myrmica rubra field colonies; assay: Exp. 14: seasonal consumption of liquid food baits by field colonies
Description: as §4, §5, §6

[4] = tested on: Lasius niger black garden ants; assay: Exp. 15: consumption of liquid food baits by field colonies; conditions: Exp. 15: EAAs 5.55%, sucrose 5.55%, EAAs 1.0% + sucrose 4.55% w/v, water
Description: In Experiments 15 and 16, the bait of EAAs and sucrose was effective for diverse ant taxa including black garden ants and thatching ants, as shown in FIG. 7. In Experiment 15 (n=10), colonies of Lasius niger black garden ants were located at the base of trees on the Burnaby campus of Simon Fraser University, and tubes were affixed next to each other on tree trunks alongside the ants' foraging trails. In Experiment 16 (n=10), colonies of Formica aserva thatching ants were located along the Mamquam forest service road (see above), and tubes were placed on top of tree stumps that contained an ant colony. For both experiments, evaporation control tubes were placed in Tupperware containers (15 cm×9 cm×10 cm) with a mesh-covered hole in the lid, and containers were set near ant colonies. Each colony was offered four Eppendorf tubes that contained: (1) EAAs (5.55% w/v); (2) sucrose (5.55% w/v), (3) EAAs (1.0% w/v)+sucrose (4.55% w/v); and (4) plain water (control).

[5] = tested on: Myrmica rubra fire ants; assay: Exp. 17: choice between lethal and non-lethal liquid bait, survival of laboratory colonies; conditions: boric acid as lethal agent in baits; conclusion from Exps. 17-19 (M. rubra, F. oreas, C. modoc)
[6] = tested on: Camponotus modoc carpenter ants; assay: Laboratory consumption of liquid nutrient baits (Exps. 1, 3, 5, 7, 9, 11); conditions: Exps. 5 and 7: single nutrients and ternary blend, unadjusted and adjusted concentrations
Protocol: as §1, §2, §3

OC[C@H]1O[C@@](CO)(O[C@H]2O[C@H](CO)[C@@H](O)[C@H](O)[C@H]2O)[C@@H](O)[C@@H]1O [sucrose, D-sucrose]
consumption by colonies ([1]; Exp. 6: unadjusted concentrations (urea 2.5%, EAAs 0.55%, sucrose 2.5% w/v)): preferentially consumed
consumption by colonies ([1]; Exp. 8: adjusted concentrations (5.55% w/v)): preferentially consumed
change of consumption over the season [2]: decreased over time
change of consumption over the season ([3]; Exp. 14, May 21 to Sep. 13, 2021): declined over time
consumption by field colonies ([3]; Exp. 14: EAA 5.55%, sucrose 5.55%, EAA 1.0% + sucrose 4.55% w/v, water, seven dates, 4 hours): generally consumed more sucrose
consumption by field colonies [4]: equally consumed

OB(O)O [boric acid]
aversion to bait consumption [5]: not aversive to bait consumption

NC(N)=O [urea]
consumption by colonies [6]: preferentially consumed
